Results on 14 molecules are retold here after ChEMBL document CHEMBL4823287, “Design and synthesis of novel 5-alkynyl pyrimidine nucleosides derivatives: Influence of C-6-substituent on antituberculosis activity” (2021).

The term inhibition denotes the percentage by which the read-out fell short of the control. The MIC50 is an inhibitory concentration at the 50% level, which refers to growth in some studies and to a panel of isolates in others.

Converted amounts (≈) assume the structure as drawn.

Assay [1] relates to Mycobacterium tuberculosis. Kind of assay: Antimycobacterial activity against Mycobacterium bovis BCG assessed as inhibition of bacterial growth at 10 ug/ml measured by microplate alamar blue assay. It counts as functional. The settings on record: variant bovis BCG. (In general: The colour change of resazurin is a common sign of viable cells or microbes.)
Assay [2] has as its system Mycobacterium tuberculosis. Kind of assay: Antimycobacterial activity against Mycobacterium bovis BCG assessed as inhibition of bacterial growth at 100 ug/ml measured by microplate alamar blue assay. It counts as functional. The settings on record: variant bovis BCG.
The subject of assay [3] is Mycobacterium tuberculosis. The assay can be described thus: Antimycobacterial activity against Mycobacterium bovis BCG assessed as inhibition of bacterial growth at 1 to 5 ug/ml measured by microplate alamar blue assay. In kind it is functional, variant bovis BCG. Particulars: dose 1-5 µg/ml; at 1 to 5 µg/mL.
For assay [4], the system named is Mycobacterium tuberculosis. Kind of assay: Antimycobacterial activity against Mycobacterium bovis BCG assessed as inhibition of bacterial growth at 50 ug/ml measured by microplate alamar blue assay. It counts as functional. Particulars: variant bovis BCG.
Assay [5] has as its system Mycobacterium tuberculosis. The assay can be described thus: Antimycobacterial activity against Mycobacterium bovis BCG assessed as inhibition of bacterial growth at measured by microplate alamar blue assay. It counts as functional. The settings on record: variant bovis BCG.
Assay [6] deals with Mycobacterium tuberculosis. The assay can be described thus: Antimycobacterial activity against Mycobacterium bovis BCG assessed as inhibition of bacterial growth at 25 ug/ml measured by microplate alamar blue assay. In kind it is functional. Particulars: variant bovis BCG.
For assay [7], the system named is Mycobacterium tuberculosis. The assay can be described thus: Antimycobacterial activity against Mycobacterium bovis BCG assessed as inhibition of bacterial growth at 1 ug/ml measured by microplate alamar blue assay. It counts as functional. The settings on record: variant bovis BCG.
Assay [8] deals with Mycobacterium tuberculosis. Kind of assay: Antimycobacterial activity against Mycobacterium bovis BCG assessed as inhibition of bacterial growth at 5 ug/ml measured by microplate alamar blue assay. It counts as functional. Particulars: variant bovis BCG.

Consider `Cc1c(C#Cc2ccccc2)c(=O)[nH]c(=O)n1[C@@H]1O[C@H](CO)[C@@H](O)[C@H]1O`, for which, in assay [1], the inhibition at 10 µg/mL was found to be 75%. For the same molecule, the inhibition at 100 µg/mL in assay [2] is 90%. For the same molecule, in assay [3], the “inhibition (INH)” value is reported as 50%. Besides, in assay [4], the inhibition at 50 µg/mL is 75%. In addition, the MIC50 in assay [5] was found to be 2.2 mg/L (≈ 6.14 µM).
With `Cc1c(C#CC2CCCCC2)c(=O)[nH]c(=O)n1[C@@H]1O[C@H](CO)[C@@H](O)[C@H]1O`, the “inhibition (INH)” value in assay [3] came out at 10%. Also, in assay [4], the inhibition at 50 µg/mL was 100%. In assay [5], the MIC50 turned out to be 14.7 mg/L (≈ 40.3 µM). In addition, the inhibition at 25 µg/mL in assay [6] was found to be 70%.
As for `NNC(=O)c1ccncc1` [ISONIAZID], the MIC50 in assay [5] turned out to be 0.9 mg/L (≈ 6.56 µM). In addition, the inhibition at 1 µg/mL in assay [7] was 100%.
As for `CO[C@H]1/C=C/O[C@@]2(C)Oc3c(C)c(O)c4c(O)c(c(/C=N/N5CCN(C)CC5)c(O)c4c3C2=O)NC(=O)/C(C)=C\C=C\[C@H](C)[C@H](O)[C@@H](C)[C@@H](O)[C@@H](C)[C@H](OC(C)=O)[C@@H]1C` [RIFAMPIN], in assay [5], the MIC50 was 0.8 mg/L (≈ 0.972 µM). Further, the inhibition at 1 µg/mL in assay [7] stood at 100%.
Consider `N[C@@H]1CONC1=O` [CYCLOSERINE], for which, in assay [1], the inhibition at 10 µg/mL was determined as 71%. Besides, the inhibition at 5 µg/mL in assay [8] came to 50%. Besides, the MIC50 in assay [5] worked out at 5.1 mg/L (≈ 50 µM).
As to `CCCCCCC#Cc1c(C)n([C@@H]2O[C@H](CO)[C@@H](O)[C@H]2O)c(=O)[nH]c1=O`, in assay [2], the inhibition at 100 µg/mL worked out at 90%. For the same molecule, the inhibition at 50 µg/mL in assay [4] amounted to 60%. In assay [5], the MIC50 was less than 50 mg/L.
For `Cc1c(C#C[Si](C)(C)C)c(=O)[nH]c(=O)n1[C@@H]1O[C@H](CO)[C@@H](O)[C@H]1O`, the inhibition at 100 µg/mL in assay [2] came out at 0%.
As for `Cc1c(C#CCC(C)C)c(=O)[nH]c(=O)n1[C@@H]1O[C@H](CO)[C@@H](O)[C@H]1O`, the “inhibition (INH)” value in assay [3] was found to be 10%. The inhibition at 50 µg/mL in assay [4] is 100%. Moreover, the MIC50 in assay [5] was found to be 18.9 mg/L (≈ 55.9 µM). In assay [6], the inhibition at 25 µg/mL stood at 60%.
As for `CCCCC#Cc1c(C)n([C@@H]2O[C@H](CO)[C@@H](O)[C@H]2O)c(=O)[nH]c1=O`, the “inhibition (INH)” value in assay [3] was found to be 10%. Also, in assay [4], the inhibition at 50 µg/mL is 100%. Also, the MIC50 in assay [5] worked out at 18.6 mg/L (≈ 55 µM). In addition, the inhibition at 25 µg/mL in assay [6] was determined as 60%.
With `CC#Cc1c(C)n([C@@H]2O[C@H](CO)[C@@H](O)[C@H]2O)c(=O)[nH]c1=O`, the inhibition at 10 µg/mL in assay [1] was determined as 0%. Further, the inhibition at 100 µg/mL in assay [2] is 90%. For the same molecule, the inhibition at 50 µg/mL in assay [4] turned out to be 50%. In assay [5], the MIC50 came out at 50 mg/L (≈ 169 µM).
Take `Cc1c(C#CC(O)c2ccccc2)c(=O)[nH]c(=O)n1[C@@H]1O[C@H](CO)[C@@H](O)[C@H]1O` (stereo partly specified): the MIC50 in assay [5] came out at 0.7 mg/L (≈ 1.8 µM). The inhibition at 1 µg/mL in assay [7] is 100%.
Turning to `CCCC#Cc1c(C)n([C@@H]2O[C@H](CO)[C@@H](O)[C@H]2O)c(=O)[nH]c1=O`, the inhibition at 10 µg/mL in assay [1] turned out to be 0%. The inhibition at 100 µg/mL in assay [2] was 90%. The inhibition at 50 µg/mL in assay [4] is 60%. In addition, the MIC50 in assay [5] was less than 50 mg/L.
As for `CCC#Cc1c(C)n([C@@H]2O[C@H](CO)[C@@H](O)[C@H]2O)c(=O)[nH]c1=O`, the inhibition at 10 µg/mL in assay [1] was found to be 0%. Also, the inhibition at 100 µg/mL in assay [2] turned out to be 90%. Also, the inhibition at 50 µg/mL in assay [4] was 50%. Also, the MIC50 in assay [5] came out at 50 mg/L (≈ 161 µM).
Turning to `Cc1c(C#CC2CC2)c(=O)[nH]c(=O)n1[C@@H]1O[C@H](CO)[C@@H](O)[C@H]1O`, in assay [1], the inhibition at 10 µg/mL was 80%. Besides, in assay [2], the inhibition at 100 µg/mL came to 90%. Also, the “inhibition (INH)” value in assay [3] was 50%. Also, the MIC50 in assay [5] worked out at 2.1 mg/L (≈ 6.52 µM).
